Measurements published in BindingDB's records for doi:10.1021/jm010244+ (Axys Pharmaceuticals, 2001).

Biological target: plasmin (Homo sapiens)
Test: The compound was tested for inhibition of human plasmin

Q: `Cc1cc2[nH]c(-c3cccc(-c4ccccc4)c3O)cc2cc1C(=N)N` [2-(2-Hydroxy-biphenyl-3-yl)-6-methyl-1H-indole-5-carboxamidine] was tested. Which Ki did it give?
A: Its Ki is 210 nM.

Q: Which Ki does the source give for `N=C(N)c1ccc2[nH]c(-c3cccc(-c4ccccc4)c3O)cc2c1Cl` [4-Chloro-2-(2-hydroxy-biphenyl-3-yl)-1H-indole-5-carboxamidine] here?
A: Its Ki is 3000 nM.
